Test results taken from US20040102522A1, “Dosage form of sodium ibuprofen” (priority 2002, published 2004).

Experiment: Water uptake (hygroscopicity) of sodium ibuprofen forms
Assay type: physicochemical

In the case of `CC(C)Cc1ccc(C(C)C(=O)O)cc1.O.[Na]` (centres unmarked) [sodium ibuprofen hydrate], the “additional water uptake on open storage” value (open storage over 6 months at 40° C. and 75% RH, water content 13-14% by weight) is reported as “did not take up additional water”.
In the case of `CC(C)Cc1ccc(C(C)C(=O)O)cc1.[Na]` (centres unmarked) [water free sodium ibuprofen, sodium ibuprofen], the water taken up (relative humidity 25% RH, spontaneous) is reported as “up to 13.6 % by weight”.
